# Experimental data published in patent publication US12702671B2, “Calcineurin inhibitors of the setron family for the treatment of hearing loss” (SENSORION, priority 2015, dated 2026).
# Counter-ions that a name gives are not always drawn.
# Columns and labels:
# Format in all cases: in vivo, Wistar rats
# [1] = tested on: acoustic trauma induced hearing loss; assay: Distortion product otoacoustic emissions (DPOAE) amplitudes after acoustic trauma
# Description: (§1) All experiments were performed using 7 week old male Wistar rats (CERJ, Le Genest, France) in accordance with the French Ministry of Agriculture regulations and European Community Council Directive no. 86/609/EEC, OJL 358. The rats were fed a standard diet ad libitum and maintained on a 12 h light-dark cycle.
# (§2) Auditory Brainstem Reponses (ABR) and Distortion Product Otoacoustic Emissions (DPOAE) were recording using a RZ6 Auditory Workstation (Tucker-Davis Technologies, Alachua, FL, USA) with animals deeply anesthetized using 90 mg/kg ketamine and 10 mg/kg xylazine and placed on a 35° C. recirculating heating pad inside a sound attenuating cubicle (Med Associates Inc., St. Albans, VT, USA) throughout the experiment.
# DPOAEs were recorded and using ER10B+ Low Noise DPOAE microphone (Etymotic Research, Inc., Elk Grove Village, IL, USA) with acoustic stimuli delivered by two calibrated MF-1 speakers in closed-field configuration (Tucker-Davis Technologies, Alachua, FL, USA). DPOAEs were recorded at fixed stimulus levels (L1=L2=70 dB SPL), with an f2/f1 ratio of 1.2. Responses were recorded at 4, 8, 16, 24 and 32 kHz.
# (§3) Animals were exposed to 121 dB octave band noise (8-16 kHz) for 2 h in groups of 4 rats, placed in individual compartments of a custom built circular cage placed on a 30 cm diameter platform rotating at 3 turns/minute (Aqila Innovation, Valbonne, France). The calibrated octave band noise generated by the RZ6 SigGen software was further amplified by a Crown D-75 amplifier in bridge mode (Crown Audio, Elkhart, IN, USA) and delivered by four Beyma CP16 compression tweeters (Acustica Beyma S. L., Moncada, Valencia, Spain) positioned 39 cm above the rotating platform, each 10 cm from the platform center.
# (§4) Animals were treated by intraperitoneal injection daily for 14 days beginning immediately after acoustic trauma induction and subsequently repeated every 24 hours. The setron compounds granisetron HCl, ondansetron HCl, tropisetron HCl and azasetron HCl (Tocris Bioscience, Bristol, UK) were delivered dissolved in saline solution (1.6 mL/kg) while Tacrolimus (Selleck Chemicals, Houston, TX, USA) was dissolved in solution composed of 10% ethanol-100%/10% Kolliphor EL/1% Tween 80/79% saline (1.0 mL/kg). Placebo treated animals received injections of 1.6 mL/kg saline following the same treatment schedule.
# (§5) Statistical analysis was performed using two-way ANOVA (Audiometry data: frequency and treatment group. Cochleograms: normalized distance from apex and treatment group) followed by Holm-Sidak post-hoc test for multiple comparisons. Results are given as mean±SEM and a p value less than or equal to 0.05 considered significant.
# (§6) Baseline line audiometry (ABR and DPOAE measures) was performed for each animal 3 days before acoustic trauma was induced. Subsequently, audiometry measures were repeated 24 h and 14 days after acoustic trauma.
# (§7) To quantify and compare the difference in treatment effects between groups while taking into account individual baseline and trauma variability, the hearing loss (ABR threshold shift & DPOAE amplitude loss) at D14 relative to baseline, as well as the functional recovery of hearing from 24 h to D14 (ABR threshold shift & DPOAE amplitude loss) were determined for all treatment groups.
# [2] = tested on: outer hair cells; assay: Outer hair cell loss (cytocochleograms) in cochleae fixed at D14 after acoustic trauma
# Description: as §3, §4
# After audiometry on day 14, animals were deeply anaesthetized with an intraperitoneal injection of pentobarbital (100 mg/kg). The cochleae were removed, fixed with 4% paraformaldehyde, pH 7.4, decalcified with 10% EDTA, pH 7.4 and then stained with myosin VIIa 1/1000. […] The mean loss of OHCs per group was subsequently calculated as a function of normalized distance from the apex in bins of 2.5% of the total length, using the total length of each histological specimen. Cell counts could reliably be obtained for up to 90% of the total distance from the apex (corresponding to the tonotopic region up to from 0 kHz to ~50 kHz in rat, Viberg & Canlon 2004), while the last 10% was too variable due to damage incurred during dissection.
# as §5
# To further support the conclusions from the functional audiometry data, the loss of outer hair cells in four treatment group was determined by constructing cytocochleograms from histological preparations of cochleae fixed after audiometry on day 14.
# [3] = tested on: acoustic trauma induced hearing loss; assay: Auditory brainstem response (ABR) thresholds after acoustic trauma
# Description: as §1, §2
# For ABR recordings, three stainless steel needle electrodes were placed subdermally over the vertex, the right mastoid and right hind leg of each animal. Tone-pips (5 msec duration presented at a rate of 21/s) at 8, 16 and 24 kHz were delivered to the right ear using a calibrated MF-1 speaker in closed-field configuration (Tucker-Davis Technologies, Alachua, FL, USA) at attenuating intensity until no reproducible response could be recorded. Close to the ABR threshold, the responses to 1000 acoustic stimuli in 5 dB steps were averaged. Responses were low-pass filtered at 3 kHz.
# as §3, §4, §5, §6, §7
# [4] = day 14, i.p. daily for 14 days after acoustic trauma
# [5] = i.p. daily for 14 days after acoustic trauma, same doses as E4
smiles,measurement,setting,value
"CN1C(=O)COc2c(C(=O)NC3CN4CCC3CC4)cc(Cl)cc21 (stereo not shown) [azasetron HCl, N-(1-azabicyclo[2.2.2]octan-8-yl)-6-chloro-4-methyl-3-oxo-1,4-benzoxazine-8-carboxamide]",reduction of DPOAE amplitudes loss compared to placebo treatment,[1]; [4],~ 60%
same,DPOAE amplitude loss from baseline to day 14 compared to placebo,[1]; [5],significantly reduced loss of DPOAE amplitudes
same,recovery of DPOAE amplitudes from 24 h post trauma to day 14 compared to placebo,[1]; [5],significantly improved recovery of DPOAE amplitudes
same,mean loss of outer hair cells compared to placebo,[2]; cochleae fixed after audiometry on day 14,significantly lower mean loss
same,reduction of mean outer hair cell loss compared to placebo treatment,[2]; cochleae fixed at day 14,50-75%
same,reduction of ABR threshold shifts compared to placebo treatment,[3]; [4],35-60%
same,ABR threshold recovery from 24 h to day 14 compared to placebo,[3]; [5],better ABR threshold recovery
same,hearing outcomes (ABR thresholds and DPOAE amplitudes) at 14 days after acoustic trauma compared to placebo,[3]; [5],better hearing outcomes across all frequencies
same,ABR threshold shift from baseline to day 14 compared to placebo,"[3]; i.p. daily for 14 days from immediately after 121 dB trauma, azasetron HCl 4.22, ondansetron HCl 4, tropisetron HCl 3.5, granisetron HCl 3.8, Tacrolimus 1.5 mg/kg",significantly lower ABR threshold shifts
same,ABR threshold improvement graded by typical clinical audiological criteria (Furuhashi et al. 2002),"[3]; placebo group only ""slight improvement""",marked improvement to complete recovery
